Reference: PMC6609550, “Blockade of the forward Na^+/Ca^2+ exchanger suppresses the growth of glioblastoma cells through Ca^2+‐mediated cell death” (British Journal of Pharmacology, 2019)

Legend:
Type in all cases: cell-based, Human
U87 cells [1] = assay: Cell cycle assay (PI staining, flow cytometry) of U87 cells; details: bepridil 25 μM 6–24 hr, CB‐DMB 3.5 μM 6–24 hr, KB‐R7943 25 μM 18 hr, BAPTA‐AM 10 μM 18 hr, CC‐930 10 μM, PD169316 10 μM 18 hr
Protocol: (§1) U87 cells were seeded in six‐well plates (Corning, Corning, NY, USA) with 1 × 10^6 cells per well and treated with NCX blockers, BAPTA‐AM, or MAPK inhibitors. Drug treatment was performed by the person who is blinded to the experimental groups. After treatment, cells were harvested in 15‐ml tubes and washed with cold sterile PBS. After being centrifuged, cells were fixed with 70% ethanol […] at 4°C for at least 1 hr. For propidium iodide (PI) staining, cells were washed one time with PBS and then were treated with ribonuclease A (RNase; 100 μg·ml^−1) for 30 min. PI (10 μg·ml^−1) was added, and stained cells were kept in the dark at 4°C until analysis. The number of cells analysed for each sample was 10,000 events. FACS analysis was performed using the Coulter CytoFlexS flow cytometer (Beckman Coulter, CA, USA), and the percentage of cells in the G0/G1, S, and G2/M phases was determined using cell cycle analysis software, ModFit LT 5.0 (Verity Software House, Topsham, ME, USA). For the apoptosis assay, cells were harvested and washed twice with cold PBS and resuspended at a density of 1 × 10^6 cells·ml^−1 in 100 μl of binding buffer containing 5 μl of Annexin V–FITC and 5 μl of PI working solution (100 μg·ml^−1). After incubation at room temperature for 15 min in the dark, 400 μl of binding buffer was added to each sample. Apoptosis was analysed by Coulter CytoFlexS flow cytometer (Beckman Coulter) for at least 10,000 events, and data were analysed with the software, CyExpert 2.0 (Beckman Coulter).

U87 cells [2] = assay: Cell viability assay (Cell Counting Kit-8), U87; details: for IC50: 72 hr, CCK-8, mean ± SEM
Protocol: (§2) Cell viability was determined by using a Cell Counting Kit‐8 (Dojindo, Japan). Briefly, cells were harvested from flasks and plated in 96‐well cell culture plates at 5 × 10^3 per well and cultured overnight. […] Control cells were treated with cell culture medium and measured at the same time point as treatment groups. CCK‐8 solution (10 μl) was added to each well of the 96‐well plates, and the cultures were incubated for 30 min at 37°C. Absorbance at 450 nm was measured using an automatic microplate reader (Molecular Devices, San Jose, CA, USA).
(§3) Figure 2 Effect of the Na^+/Ca^2+ exchanger (NCX) blockers on viability of human glioblastoma cell lines. (a, b) Viability of adult glioblastoma cell lines (U87 and U251) after exposure to NCX blockers bepridil, KB‐R7943, SEA0400, SN‐6, or YM244769 at 0–100 μM for 72 hr. n = 5 independent tests per group. (c) Viability of paediatric glioblastoma cell line SF188 after 72‐hr incubation with the same NCX blockers at 0–100 μM. n = 5 independent tests per group. (d) For U87, U251, and SF188 cell lines, concentration of the NCX blockers required to produce half maximal inhibition (IC50: μM, mean ± SEM) of cell viability.

SF188 cells = assay: Cell viability assay (Cell Counting Kit-8), SF188; details: for Effect on viability of paediatric glioblastoma cell line SF188 (in words): 0–100 μM; for Effect on viability of paediatric glioblastoma cell line SF188 (in words) / IC50: 72 hr; for IC50: CCK-8, mean ± SEM
Protocol: as §2, §3

U87 cells [3] = assay: Annexin V–FITC/PI apoptosis assay of U87 cells; details: bepridil 25 μM 6–48 hr, CB‐DMB 3.5 μM 6–48 hr, KB‐R7943 25 μM 20 hr, BAPTA‐AM 10 μM 18 hr, CC‐930 10 μM, PD169316 10 μM
Protocol: as §1

forward NCX = assay: Whole-cell patch-clamp recording of forward-mode NCX currents in U87 cells; details: forward NCX current measured at −110 mV, mean ± SEM, n = 4, read-out: IC50, blocking forward NCX (currents)
Protocol: Whole‐cell patch‐clamp recording was performed using a Multiclamp 700B amplifier (Molecular Devices, Foster City, CA, USA) at room temperature. Voltage protocols were provided and current recorded via a DigiData‐1550B interface (Molecular Devices) controlled by pClamp 10 Software (Molecular Devices, RRID:SCR_011323). […] Internal solution consisted of (in mM): 120 CsCl, 20 NaCl, 2 MgCl2, 13 CaCl2, 2 Na2ATP, 20 BAPTA, and 10 HEPES at a pH 7.2. […] Series resistance was compensated by 75–85%. Linear leak and residual capacitance currents were subtracted online using a P/4 protocol of the pClamp 10. For the recording of the membrane currents related to the NCX, cells were held at −50 mV and depolarized to +60 mV, and then a voltage ramp starting from +60 to −120 mV was applied for 1,000 ms before returning back to −50 mV. The reverse and forward NCX currents were measured at +50 and −110 mV holding potentials respectively (Molinaro et al., 2008; Rahman, Inman, Kiss, & Janssen, 2012; Song, Chen, & Yu, 2014). Data were filtered at 3 KHz and digitized at sampling rates of 20 KHz. For drug application, cells were perfused with a VC‐6 Six Channel Perfusion Valve Control Systems (Warner Instruments, Greenwich, CT, USA) connected to a gravity‐fed perfusion systems.
Data are expressed as mean ± SEM and analysed by Prism 7 software, La Jolla, CA (GraphPad Prism, RRID:SCR_002798). The data and statistical analysis comply with the recommendations of the British Journal of Pharmacology on experimental design and analysis in pharmacology. Concentrations of the NCX blockers (IC50) exerting half‐maximal inhibition of NCX currents were obtained by fitting the concentration–response with the equation: I/I0*100%=Bottom+Top−Bottom/1+10^((^Log^IC50−C)*n) , where I 0 and I are current amplitudes measured in control and in the presence of NCX blockers, C is the logarithm of concentration, and n is the Hill coefficient. The statistical difference between two independent groups was analysed by Student's parametric unpaired t test. And the original data of more than two groups were assessed by the parametric one‐way ANOVA followed by a Tukey's post hoc test. The data for cell viability and Western blot were usually normalized to the control group, and were thus analysed by the non‐parametric Kruskal–Wallis test followed by a Dunn's post hoc test. Differences were considered to be significant when P < .05. Post hoc tests were conducted when the F value achieved the necessary level (P < .05) and there was no significant variance inhomogeneity.
We characterized the membrane currents associated with NCX activity in glioblastoma cells using whole‐cell patch‐clamp recording. […] The NCX current in its reverse mode (Ca^2+ entry) was measured at +50, and the forward‐mode current (Ca^2+ exit) was measured at −110 mV. The Ni^2+ (10 mM) was employed to inhibit and identify the NCX currents in its either reverse or forward mode as previously reported (Maack, Ganesan, Sidor, & O'Rourke, 2005).

SMILES	Effect on cell cycle distribution, compound alone (U87 cells [1])	Effect on growth (viability) of U87 cells (U87 cells [2]; 25 μM, 48 hr)	IC50 (U87 cells [2]; Homo sapiens, U-87 MG)	Effect on viability of paediatric glioblastoma cell line SF188 (in words) (SF188 cells)	Effect on growth (viability) of SF188 cells (SF188 cells; 25 μM, 48 hr)	IC50 (SF188 cells; Homo sapiens, SF-188)	Effect on apoptosis (Annexin V+ cells), compound alone (U87 cells [3])	IC50 (forward NCX)	IC50 (U87 cells [2])	IC50 (SF188 cells)
CC(C)COCC(CN(Cc1ccccc1)c1ccccc1)N1CCCC1 (centres unmarked) [Bepridil, N‐benzyl‐N‐(3‐isobutoxy‐2‐pyrrolidin‐1‐yl‐propyl)aniline]	reduced the cell fraction in S phase and increased cells in G0/G1 phase in a time‐dependent manner	markedly suppressed growth	18.6 ± 1.1 µM	suppressed by bepridil and KB‐R7943 in a dose‐dependent manner	markedly suppressed growth	12.9 ± 1 µM	time‐dependent increase of apoptotic (Annexin V^+) cells	19.1 ± 1.2 µM		
CS(=O)(=O)O.N=C(N)SCCc1ccc(OCc2ccc([N+](=O)[O-])cc2)cc1 [KB‐R7943, 2‐[4‐[(4‐nitrophenyl)methoxy]phenyl]ethyl ester carbamimidothioic acid methanesulfonate]	caused G0/G1 arrest and apoptosis			suppressed by bepridil and KB‐R7943 in a dose‐dependent manner			caused G0/G1 arrest and apoptosis	32.3 ± 1.3 µM	26.6 ± 1.4 µM	17.3 ± 1 µM
